Here are results for eight compounds from patent US11746116B2, “Antibiotic resistance breakers” (KING'S COLLEGE LONDON, priority 2017, dated 2023).

Molecules are shown by their SMILES. Some results are limits rather than exact numbers.

Common to all, as to experiment: MIC, microdilution broth method
A general note: In broth dilution the organism is exposed to a series of concentrations in liquid medium.

In assay [1] the test system is M6. The class given is cell-based. The settings on record: M6; Normal (no PMBN); in µg/mL.
Assay [2] deals with VRE12201. The assay is classed as cell-based, Enterococcus faecalis. The settings on record: VRE12201; in µg/mL.
Assay [3] concerns EMRSA16. The assay is classed as cell-based, Staphylococcus aureus. The settings on record: EMRSA16; in µg/mL.
In assay [4] the test system is VRE12204. The class given is cell-based, Enterococcus faecium. Particulars: VRE12204; in µg/mL.
Assay [5] relates to VSE775. The class given is cell-based, Enterococcus faecalis. Particulars: VSE775; in µg/mL.
For assay [6], the system named is PA01. The class given is cell-based, Pseudomonas aeruginosa. Particulars: PA01; Normal (no PMBN); in µg/mL.
The subject of assay [7] is Ab17978. The class given is cell-based. Particulars: Ab17978; Normal (no PMBN); in µg/mL.
Assay [8] deals with KP13368. The assay is classed as cell-based. Particulars: KP13368; Normal (no PMBN); in µg/mL.
The subject of assay [9] is MSSA9144. The class given is cell-based, Staphylococcus aureus. The settings on record: MSSA9144; in µg/mL.
Assay [10] has as its system EMRSA15. The assay is classed as cell-based, Staphylococcus aureus. The settings on record: EMRSA15; in µg/mL.

In the case of `CCn1cc(C(=O)O)c(=O)c2cc(F)c(N3CCN(Cc4ccc(N(C)C)cc4)CC3)cc21` [ML-77-113], the MIC is 4-16 in [1]; 2 in [2]; above 32 in assay [3]; 0.25 in [4]; 4-8 in [5]; 16-32 in assay [6]. Besides, the MIC in assay [7] is 2; in [8], 32; in assay [9] it was 0.125-0.25; in assay [10], 16-32.
For `CCn1cc(C(=O)O)c(=O)c2cc(F)c(N3CCN(Cc4ccccc4)CC3)cc21` [ML-77-047], the MIC is listed as 4 in assay [1]; 2 in assay [2]; 16-32 in assay [3]; 4 in assay [4]; 4 in assay [5]; 32 in [6]. Further, the MIC in assay [7] is 1-16; in [8], 32; in [9], 0.25; in [10], 16.
Turning to `CN(C)c1ccc(CN2CCN(c3cc4c(cc3F)c(=O)c(C(=O)O)cn4C3CC3)CC2)cc1` [ML-77-112], the MIC is reported as 1-2 in assay [1]; 0.125-0.5 in [2]; 1 in assay [4]; 0.25-1 in [5]; 8 in assay [6]; 0.5-1 in [7]. For the same compound, the MIC was 0.0625-0.125 in assay [9] and 8-16 in assay [10].
On to `CCn1cc(C(=O)O)c(=O)c2cc(F)c(N3CCN(Cc4ccc(CO)cc4)CC3)cc21` [ML-77-148, 1-ethyl-6-fluoro-7-(4-(4-(hydroxymethyl)benzyl)piperazin-1-yl)-4-oxo-1,4-dihydroquinoline-3-carboxylic acid], for which the MIC was 4 in assay [1]; 4 in [2]; 32 in assay [3]; 8 in [4]; 4-8 in [5]; 32 in [6]. Moreover, the MIC in assay [7] came to 2; in assay [8] it was 32; in [9], 0.5; in assay [10] it was 32.
For `CCn1cc(C(=O)O)c(=O)c2cc(F)c(N3CCN(Cc4cccc5c4OCO5)CC3)cc21` [ML-77-035], the MIC in [1] is 8-16; in [2], 4; in assay [3] it was above 32; in assay [4], 8; in assay [5], 8; in assay [6], 64-128. In addition, the MIC in assay [7] is 2-4; in assay [9], 0.5; in assay [10], above 32.
Consider `O=C(O)c1cn(C2CC2)c2cc(N3CCN(Cc4ccc(-c5ccccc5)cc4)CC3)c(F)cc2c1=O` [ML-77-133], for which the MIC worked out at 1 in assay [1]; 4 in assay [2]; 2 in assay [3]; 2 in assay [4]; 2 in assay [5]; 4 in [6]. Moreover, the MIC is reported as 2 in assay [7], 1 in assay [9] and 2 in [10].
`Cc1cc(C)cc(CN2CCN(c3cc4c(cc3F)c(=O)c(C(=O)O)cn4C3CC3)CC2)c1` [ML-77-149]: the MIC in assay [1] is given as 4-8; in [2] it was 1; in assay [3], 8; in assay [4], 8; in assay [5] it was 2-4; in [6], 32. For the same compound, the values for the MIC in [7], in assay [9] and in assay [10] were 4, 0.25 and 4-8, respectively.
In the case of `CCn1cc(C(=O)O)c(=O)c2cc(F)c(N3CCN(Cc4cccc5cccnc45)CC3)cc21` [ML-77-053], the MIC in assay [1] amounted to 8; in [2] it was 8; in [5] it was 16; in [6], 64; in [7], 4; in assay [8], 64. The compound also yielded an MIC in assay [9] of 1.
